Reference: PubChem BioAssay AID2060497 (Molecular Pharmacology Branch, DTP, NCI, 2025)

System: 317291-083-R-J1-PDC complex spheroids, viability
Assay: Anticancer human tumor 317291-083-R-J1-PDC patient-derived soft tissue sarcoma cell line growth inhibition [GQUAD]
Settings: for IC50: curve of first compound; for viability, T/C: stronger effect = lower value
In short: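 Viability of tumor cells grown as complex spheroids with endothelial and stromal cells, exposed to drug combinations. Top concentration at or near clinical Cmax (else 10 microM), diluted in half-log increments.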

[1] = second compound 0.0316 µM, first compound 0.0316 µM
[2] = second compound 0.0316 µM, first compound 0.1 µM
[3] = second compound 0.0316 µM, first compound 0.316 µM
[4] = second compound 0.0316 µM, first compound 1 µM
[5] = second compound 0.0316 µM, first compound 3.16 µM
[6] = second compound 0.0316 µM, first compound 10 µM
[7] = second compound 0.1 µM, first compound 0.0316 µM
[8] = second compound 0.1 µM, first compound 0.1 µM
[9] = second compound 0.1 µM, first compound 0.316 µM
[10] = second compound 0.1 µM, first compound 1 µM
[11] = second compound 0.1 µM, first compound 3.16 µM
[12] = second compound 0.1 µM, first compound 10 µM
[13] = second compound 0.316 µM, first compound 0.0316 µM
[14] = second compound 0.316 µM, first compound 0.1 µM
[15] = second compound 0.316 µM, first compound 0.316 µM
[16] = second compound 0.316 µM, first compound 1 µM
[17] = second compound 0.316 µM, first compound 3.16 µM
[18] = second compound 0.316 µM, first compound 10 µM
[19] = second compound 1 µM, first compound 0.0316 µM
[20] = second compound 1 µM, first compound 0.1 µM
[21] = second compound 1 µM, first compound 0.316 µM
[22] = second compound 1 µM, first compound 1 µM
[23] = second compound 1 µM, first compound 3.16 µM
[24] = second compound 1 µM, first compound 10 µM
[25] = second compound 3.16 µM, first compound 0.0316 µM
[26] = second compound 3.16 µM, first compound 0.1 µM
[27] = second compound 3.16 µM, first compound 0.316 µM
[28] = second compound 3.16 µM, first compound 1 µM
[29] = second compound 3.16 µM, first compound 3.16 µM
[30] = second compound 3.16 µM, first compound 10 µM
[31] = second compound 10 µM, first compound 0.0316 µM
[32] = second compound 10 µM, first compound 0.1 µM
[33] = second compound 10 µM, first compound 0.316 µM
[34] = second compound 10 µM, first compound 1 µM
[35] = second compound 10 µM, first compound 3.16 µM
[36] = second compound 10 µM, first compound 10 µM
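Further: spheroids exposed to compounds for one week before readout.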
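Wherever viability, T/C is given: percent viability relative to DMSO vehicle wells taken as 100%.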

Work on Nc1ccn(C2OC(CO)C(O)C2(F)F)c(=O)n1 (stereo not drawn) + Cc1cnc(CNC(=O)c2c(=O)c3ccc(N4CCCN(C)CC4)nc3n3c2sc2ccccc23)cn1 yielded an IC50 (second compound 0.0316 µM) of 34.7 nM, an IC50 (second compound 0.1 µM) of less than 31.6 nM and an IC50 (second compound 0.316 µM) of less than 31.6 nM. It also gave an IC50 (second compound 1 µM) of less than 31.6 nM, an IC50 (second compound 3.16 µM) of less than 31.6 nM and an IC50 (second compound 10 µM) of less than 31.6 nM. For the same compound, the viability, T/C [1] was 53.1%, the viability, T/C [2] was 20.4% and the viability, T/C [3] was 17.6%. It also gave a viability, T/C [4] of 11.2%, a viability, T/C [5] of 8.79% and a viability, T/C [6] of 6.85%. It also gave a viability, T/C [7] of 43.9%, a viability, T/C [8] of 39.9% and a viability, T/C [9] of 11.6%. It also gave a viability, T/C [10] of 15.9%, a viability, T/C [11] of 8.93% and a viability, T/C [12] of 7.45%. It also gave a viability, T/C [13] of 43.4%, a viability, T/C [14] of 19.6% and a viability, T/C [15] of 11.2%. It also gave a viability, T/C [16] of 8.54%, a viability, T/C [17] of 14.6% and a viability, T/C [18] of 8.2%. The viability, T/C [19] was 31.5%, the viability, T/C [20] was 21.2% and the viability, T/C [21] was 26.3%. It also gave a viability, T/C [22] of 6.79%, a viability, T/C [23] of 8.1% and a viability, T/C [24] of 7.55%. For the same compound, the viability, T/C [25] was 19%, the viability, T/C [26] was 17.5% and the viability, T/C [27] was 9.09%. The viability, T/C [28] was 7.43%, the viability, T/C [29] was 5.04% and the viability, T/C [30] was 5.88%. The viability, T/C [31] was 16.9%, the viability, T/C [32] was 24.9% and the viability, T/C [33] was 7%. For the same compound, the viability, T/C [34] was 8.35%, the viability, T/C [35] was 5.09% and the viability, T/C [36] was 8.27%.
Work on CC(=O)O[C@H]1C(=O)[C@@]2(C)[C@H]([C@H](OC(=O)c3ccccc3)[C@]3(O)C[C@H](OC(=O)[C@H](O)[C@@H](NC(=O)c4ccccc4)c4ccccc4)C(C)=C1C3(C)C)[C@]1(OC(C)=O)CO[C@@H]1C[C@@H]2O + Cc1cnc(CNC(=O)c2c(=O)c3ccc(N4CCCN(C)CC4)nc3n3c2sc2ccccc23)cn1 yielded an IC50 (second compound 0.0316 µM) of less than 31.6 nM, an IC50 (second compound 0.1 µM) of less than 31.6 nM and an IC50 (second compound 0.316 µM) of less than 31.6 nM. For the same compound, the IC50 (second compound 1 µM) was less than 31.6 nM, the IC50 (second compound 3.16 µM) was less than 31.6 nM and the IC50 (second compound 10 µM) was less than 31.6 nM. It also gave a viability, T/C [1] of 29.2%, a viability, T/C [2] of 14.9% and a viability, T/C [3] of 8.69%. The viability, T/C [4] was 9.72%, the viability, T/C [5] was 11.3% and the viability, T/C [6] was 9.08%. For the same compound, the viability, T/C [7] was 25.4%, the viability, T/C [8] was 8.37% and the viability, T/C [9] was 11.1%. The viability, T/C [10] was 8.92%, the viability, T/C [11] was 10% and the viability, T/C [12] was 10.2%. It also gave a viability, T/C [13] of 17.5%, a viability, T/C [14] of 12.3% and a viability, T/C [15] of 8.21%. It also gave a viability, T/C [16] of 9.2%, a viability, T/C [17] of 7.36% and a viability, T/C [18] of 8.93%. The viability, T/C [19] was 17.8%, the viability, T/C [20] was 10.5% and the viability, T/C [21] was 8.43%. It also gave a viability, T/C [22] of 11.4%, a viability, T/C [23] of 8.77% and a viability, T/C [24] of 9.02%. The viability, T/C [25] was 14.3%, the viability, T/C [26] was 7.98% and the viability, T/C [27] was 11.2%. The viability, T/C [28] was 5.02%, the viability, T/C [29] was 14.6% and the viability, T/C [30] was 5.59%. For the same compound, the viability, T/C [31] was 0.22%, the viability, T/C [32] was 11.5% and the viability, T/C [33] was 7.59%. The viability, T/C [34] was 1.49%, the viability, T/C [35] was 0.95% and the viability, T/C [36] was 0.58%.
CC[C@@]1(O)C(=O)OCc2c1cc1n(c2=O)Cc2cc3c(CN(C)C)c(O)ccc3nc2-1 + CN(C)c1ccc(Nc2c3ccc(NC(=O)CCN4CCCC4)cc3nc3cc(NC(=O)CCN4CCCC4)ccc23)cc1 was tested, and the IC50 (second compound 0.0316 µM) was 54.9 nM, the IC50 (second compound 0.1 µM) was 50.5 nM and the IC50 (second compound 0.316 µM) was 25.9 nM. The IC50 (second compound 1 µM) was less than 0.999 nM, the IC50 (second compound 3.16 µM) was less than 0.999 nM and the IC50 (second compound 10 µM) was less than 0.999 nM. For the same compound, the viability, T/C (second compound 0.0316 µM, first compound 0.000999 µM) was 99.5%, the viability, T/C (second compound 0.0316 µM, first compound 0.00316 µM) was 98.3% and the viability, T/C (second compound 0.0316 µM, first compound 0.00999 µM) was 109%. For the same compound, the viability, T/C [1] was 70.3%, the viability, T/C (second compound 0.0316 µM, first compound 0.0999 µM) was 29% and the viability, T/C [3] was 16.7%. The viability, T/C (second compound 0.1 µM, first compound 0.000999 µM) was 95%, the viability, T/C (second compound 0.1 µM, first compound 0.00316 µM) was 85.4% and the viability, T/C (second compound 0.1 µM, first compound 0.00999 µM) was 94%. The viability, T/C [7] was 65.5%, the viability, T/C (second compound 0.1 µM, first compound 0.0999 µM) was 26.9% and the viability, T/C [9] was 15.9%. The viability, T/C (second compound 0.316 µM, first compound 0.000999 µM) was 79.8%, the viability, T/C (second compound 0.316 µM, first compound 0.00316 µM) was 90.8% and the viability, T/C (second compound 0.316 µM, first compound 0.00999 µM) was 74.7%. The viability, T/C [13] was 42.6%, the viability, T/C (second compound 0.316 µM, first compound 0.0999 µM) was 28.9% and the viability, T/C [15] was 14.9%. For the same compound, the viability, T/C (second compound 1 µM, first compound 0.000999 µM) was 49%, the viability, T/C (second compound 1 µM, first compound 0.00316 µM) was 42.6% and the viability, T/C (second compound 1 µM, first compound 0.00999 µM) was 48.5%. For the same compound, the viability, T/C [19] was 36.7%, the viability, T/C (second compound 1 µM, first compound 0.0999 µM) was 18.1% and the viability, T/C [21] was 9.13%. For the same compound, the viability, T/C (second compound 3.16 µM, first compound 0.000999 µM) was 28.4%, the viability, T/C (second compound 3.16 µM, first compound 0.00316 µM) was 24.1% and the viability, T/C (second compound 3.16 µM, first compound 0.00999 µM) was 22.8%. For the same compound, the viability, T/C [25] was 15.4%, the viability, T/C (second compound 3.16 µM, first compound 0.0999 µM) was 11.5% and the viability, T/C [27] was 9.22%. It also gave a viability, T/C (second compound 10 µM, first compound 0.000999 µM) of 9.99%, a viability, T/C (second compound 10 µM, first compound 0.00316 µM) of 16.1% and a viability, T/C (second compound 10 µM, first compound 0.00999 µM) of 5.13%. For the same compound, the viability, T/C [31] was 5.79%, the viability, T/C (second compound 10 µM, first compound 0.0999 µM) was 8.35% and the viability, T/C [33] was 4.27%.
Work on C=CCn1c(=O)c2cnc(Nc3ccc(N4CCN(C)CC4)cc3)nc2n1-c1cccc(C(C)(C)O)n1 + Cc1cnc(CNC(=O)c2c(=O)c3ccc(N4CCCN(C)CC4)nc3n3c2sc2ccccc23)cn1 yielded an IC50 (second compound 0.0316 µM) of 171 nM, an IC50 (second compound 0.1 µM) of 64.7 nM and an IC50 (second compound 0.316 µM) of less than 31.6 nM. The IC50 (second compound 1 µM) was less than 31.6 nM, the IC50 (second compound 3.16 µM) was less than 31.6 nM and the IC50 (second compound 10 µM) was less than 31.6 nM. It also gave a viability, T/C [1] of 79.7%, a viability, T/C [2] of 65.5% and a viability, T/C [3] of 31.2%. For the same compound, the viability, T/C [4] was 28.8%, the viability, T/C [5] was 17.8% and the viability, T/C [6] was 17.2%. It also gave a viability, T/C [7] of 57.3%, a viability, T/C [8] of 45.4% and a viability, T/C [9] of 30.3%. For the same compound, the viability, T/C [10] was 19.9%, the viability, T/C [11] was 14.6% and the viability, T/C [12] was 14.8%. The viability, T/C [13] was 43.2%, the viability, T/C [14] was 27.5% and the viability, T/C [15] was 22.6%. For the same compound, the viability, T/C [16] was 20.9%, the viability, T/C [17] was 12% and the viability, T/C [18] was 17.6%. It also gave a viability, T/C [19] of 27.7%, a viability, T/C [20] of 30.3% and a viability, T/C [21] of 24.6%. It also gave a viability, T/C [22] of 15.1%, a viability, T/C [23] of 8.69% and a viability, T/C [24] of 8.16%. For the same compound, the viability, T/C [25] was 15.6%, the viability, T/C [26] was 13% and the viability, T/C [27] was 19.1%. For the same compound, the viability, T/C [28] was 4.5%, the viability, T/C [29] was 4.07% and the viability, T/C [30] was 2.45%. The viability, T/C [31] was 0.13%, the viability, T/C [32] was 0.27% and the viability, T/C [33] was 0.18%. The viability, T/C [34] was 1.89%, the viability, T/C [35] was 0.2% and the viability, T/C [36] was 0.61%.
